Experimental data taken from ChEMBL document CHEMBL1154377, “Evaluation of basic, heterocyclic ring systems as templates for use as potassium competitive acid blockers (pCABs)” (Bioorg Med Chem Lett, 2009).
Activity calls are given as the source filed them. No cut-off for these calls is given here.

Assays:
[1] = Inhibition of H+/K+ ATPase at pH 7.4
[2] = Dissociation constant, pKa of the compound; format: physicochemical
[3] = biological target: T1, Cytochrome P450 3A4 (Homo sapiens, UniProt P08684); experiment: Inhibition of CYP3A4 using diethoxyfluorescein substrate; format: ADME
T1 sequence (P08684 whole entry): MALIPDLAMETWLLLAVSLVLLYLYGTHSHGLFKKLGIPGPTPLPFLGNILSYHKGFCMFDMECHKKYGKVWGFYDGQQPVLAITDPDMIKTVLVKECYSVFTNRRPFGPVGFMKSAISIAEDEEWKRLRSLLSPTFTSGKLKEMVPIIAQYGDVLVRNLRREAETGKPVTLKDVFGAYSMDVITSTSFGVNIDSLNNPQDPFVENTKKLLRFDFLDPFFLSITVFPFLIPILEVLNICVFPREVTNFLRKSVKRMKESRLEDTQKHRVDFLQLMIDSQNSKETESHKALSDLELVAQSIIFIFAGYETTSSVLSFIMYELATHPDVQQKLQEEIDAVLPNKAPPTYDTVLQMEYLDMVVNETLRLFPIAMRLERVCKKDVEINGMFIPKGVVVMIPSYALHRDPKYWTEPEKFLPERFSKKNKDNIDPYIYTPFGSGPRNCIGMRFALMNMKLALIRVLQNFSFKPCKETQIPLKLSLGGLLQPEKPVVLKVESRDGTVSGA

[4] = Inhibition of H+/K+ ATPase in parietal cells assessed as inhibition of histamine-stimulated [14C]aminopyrine accumulation
[5] = biological target: Cytochrome P450 2C19 (Homo sapiens, UniProt P33261); experiment: Inhibition of CYP2C19; format: ADME
Sequence of Cytochrome P450 2C19 (P33261 whole entry): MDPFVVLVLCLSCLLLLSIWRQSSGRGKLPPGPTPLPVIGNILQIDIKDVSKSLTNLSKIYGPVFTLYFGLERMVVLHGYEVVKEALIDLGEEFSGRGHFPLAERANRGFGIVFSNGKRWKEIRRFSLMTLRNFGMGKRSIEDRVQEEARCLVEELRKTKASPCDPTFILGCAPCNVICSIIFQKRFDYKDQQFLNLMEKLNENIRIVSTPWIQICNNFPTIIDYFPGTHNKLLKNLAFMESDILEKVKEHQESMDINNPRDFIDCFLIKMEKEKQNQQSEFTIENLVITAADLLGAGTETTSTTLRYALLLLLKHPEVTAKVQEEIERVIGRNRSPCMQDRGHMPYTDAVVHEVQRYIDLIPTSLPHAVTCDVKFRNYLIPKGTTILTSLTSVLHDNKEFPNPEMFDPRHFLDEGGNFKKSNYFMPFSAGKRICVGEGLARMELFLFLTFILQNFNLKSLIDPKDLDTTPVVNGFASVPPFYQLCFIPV

[6] = Chromatographic hydrophobicity index at pH 7.4 by fast gradient HPLC; format: physicochemical; conditions: buffer
[7] = biological target: Cytochrome P450 2D6 (Homo sapiens, UniProt P10635); experiment: Inhibition of CYP2D6; format: ADME
Sequence of Cytochrome P450 2D6 (P10635 whole entry): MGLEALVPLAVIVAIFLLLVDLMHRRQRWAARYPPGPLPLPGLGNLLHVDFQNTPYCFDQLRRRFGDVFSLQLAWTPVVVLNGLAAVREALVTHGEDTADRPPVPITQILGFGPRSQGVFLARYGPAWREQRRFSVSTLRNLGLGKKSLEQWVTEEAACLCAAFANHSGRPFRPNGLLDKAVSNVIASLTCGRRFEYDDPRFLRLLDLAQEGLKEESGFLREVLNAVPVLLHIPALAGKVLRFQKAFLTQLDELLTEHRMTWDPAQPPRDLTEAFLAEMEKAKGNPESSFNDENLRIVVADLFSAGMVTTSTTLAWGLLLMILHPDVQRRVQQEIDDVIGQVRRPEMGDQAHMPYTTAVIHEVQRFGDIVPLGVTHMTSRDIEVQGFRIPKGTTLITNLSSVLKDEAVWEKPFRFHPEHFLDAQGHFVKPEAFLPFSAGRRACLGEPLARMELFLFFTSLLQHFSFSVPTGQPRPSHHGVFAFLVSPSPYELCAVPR

[8] = biological target: Cytochrome P450 2C9 (Homo sapiens, UniProt P11712)
Sequence of Cytochrome P450 2C9 (P11712 whole entry): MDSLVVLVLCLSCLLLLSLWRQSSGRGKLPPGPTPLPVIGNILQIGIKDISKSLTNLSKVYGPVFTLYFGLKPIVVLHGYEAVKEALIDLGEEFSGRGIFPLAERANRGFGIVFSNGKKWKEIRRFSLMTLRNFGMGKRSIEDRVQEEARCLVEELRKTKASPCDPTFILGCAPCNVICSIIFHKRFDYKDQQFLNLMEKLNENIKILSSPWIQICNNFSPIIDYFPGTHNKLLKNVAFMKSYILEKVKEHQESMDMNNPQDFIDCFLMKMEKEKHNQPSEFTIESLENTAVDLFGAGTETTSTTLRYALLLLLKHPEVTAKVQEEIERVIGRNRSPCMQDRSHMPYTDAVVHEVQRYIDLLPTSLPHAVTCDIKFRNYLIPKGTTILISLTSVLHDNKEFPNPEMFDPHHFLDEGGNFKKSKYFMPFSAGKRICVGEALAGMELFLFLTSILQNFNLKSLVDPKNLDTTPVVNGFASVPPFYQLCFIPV

[9] = biological target: T2, Cytochrome P450 1A2 (Homo sapiens, UniProt P05177); experiment: Inhibition of CYP1A2; format: ADME
T2 sequence (P05177 whole entry): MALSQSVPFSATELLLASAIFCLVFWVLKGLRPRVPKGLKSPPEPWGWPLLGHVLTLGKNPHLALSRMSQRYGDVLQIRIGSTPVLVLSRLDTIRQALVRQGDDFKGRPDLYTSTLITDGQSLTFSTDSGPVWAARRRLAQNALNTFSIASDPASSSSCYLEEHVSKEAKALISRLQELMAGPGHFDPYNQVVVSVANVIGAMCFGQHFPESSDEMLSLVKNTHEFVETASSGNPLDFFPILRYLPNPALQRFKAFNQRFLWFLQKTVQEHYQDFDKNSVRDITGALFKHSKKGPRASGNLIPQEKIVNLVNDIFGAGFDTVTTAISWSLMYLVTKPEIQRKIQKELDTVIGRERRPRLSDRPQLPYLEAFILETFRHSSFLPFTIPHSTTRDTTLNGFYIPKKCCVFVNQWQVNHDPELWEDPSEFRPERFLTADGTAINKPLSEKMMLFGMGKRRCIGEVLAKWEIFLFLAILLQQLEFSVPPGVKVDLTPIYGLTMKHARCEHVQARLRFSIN

[10] = Intrinsic clearance in human liver microsomes; format: ADME, Microsome
[11] = Intrinsic clearance in rat liver microsomes; format: ADME, Microsome
[12] = biological target: T1, Cytochrome P450 3A4; experiment: Inhibition of CYP3A4 using 7-benzyloxyquinoline substrate; format: ADME
[13] = Inhibition of H+/K+ ATPase in parietal cells assessed as inhibition of pentagastrin-stimulated [14C]aminopyrine accumulation at 1 uM; format: cell-based
[14] = Intrinsic clearance in dog liver microsomes; format: ADME, Canis lupus familiaris, Microsome
[15] = Inhibition of H+/K+ ATPase in parietal cells assessed as inhibition of pentagastrin-stimulated [14C]aminopyrine accumulation at 50 nM; format: cell-based
[16] = Inhibition of H+/K+ ATPase in parietal cells assessed as inhibition of pentagastrin-stimulated [14C]aminopyrine accumulation at 50 µM

Row | Structure (SMILES) | pIC50 [1] | pKa ([2]; read-out: pKa) | IC50 [3] [µM] | IC50 [4] [µM] | IC50 [5] [µM] | chromatographic logD [6] | IC50 [7] [µM] | IC50 [8] [µM] | IC50 [9] [µM] | CLint scaled [10] [mL/min/kg] | CLint scaled [11] [mL/min/kg] | IC50 [12] [µM] | pIC50 [13] | CLint scaled [14] [mL/min/kg] | inhibition [15] [%] | pKa [2] | inhibition [16] [%]
1 | Cc1cccc(C)c1CNc1cccn2c(C)ncc12 | 4.1 | 6.03 |  |  |  |  |  |  |  |  |  |  |  |  |  |  | 
2 | CCn1c(C)c(C)c2cc(-n3ccccc3=O)nc(NCc3c(C)cccc3C)c21 | 7.4 | 4 | 2.9 | 0.2 | 6.5 | 3.9 | 18 | 0.7 | 65 | 22 | 41 |  |  |  |  |  | 
3 | Cc1cccc(C)c1CNc1ccnn2c(C)c(C)nc12 | 6.1 |  |  |  |  | 3.53 |  |  |  |  |  |  |  |  |  |  | 
4 | Cc1cccc(C)c1CNc1cccc2c1nc(C)n2C | 5.5 |  | 13 | 0.0447 | 9.2 |  | 35 | 8.8 | 2.1 | 8 | 47 | 9 |  |  |  |  | 
5 | Cc1cccc(C)c1CNc1cccn2c(C)nnc12 | 4 |  |  |  |  | 3.5 |  |  |  |  |  |  | inactive |  |  |  | 
6 | Cc1cccc(C)c1CNc1nccn2c(C)c(C)nc12 | 7.1 |  |  | 0.282 |  | 3.4 |  |  |  |  |  |  |  |  |  |  | 
7 | Cc1cccc(C)c1CNc1cc(C(=O)NCCO)cn2c(C)c(C)nc12 [LINAPRAZAN] |  | 6.27 |  | 0.0562 |  | 2.14 |  |  |  | 1.3 | 4 |  |  | 0.9 |  |  | 
8 | Cc1cccc(C)c1CNc1nc(-n2ccccc2=O)cc2c(C)c(C)[nH]c12 | 7.4 | 4.71 | 3 |  | 20 | 3.18 | > 33 | 3.3 | 29 | 2.7 | 2.9 | 90 |  |  |  |  | 
9 | Cc1cccc(C)c1CNc1nccc2c1nc(C)n2C | 5.3 | 7.49 | 12 | 0.0741 | 27 | 2.09 | < 0.1 | 68 | 31 | 3.4 | 14 | 21 |  | 6.5 |  |  | 
10 | Cc1cccc(C)c1CNc1nccc2c(C)c[nH]c12 | 9 | 8.71 |  |  |  |  |  |  |  |  |  |  |  |  | 92.5 |  | 
11 | Cc1cccc(C)c1CNc1nccn2c(C)c(C)cc12 | 7.6 | 7.92 | 4.7 | 0.141 | 4.7 | 3.54 | < 0.1 | 14 | 6.1 | 11 | 50 | 1.6 |  |  |  |  | 
12 | Cc1cccc(C)c1COc1cccn2c(C)c(C)nc12 | 7.6 | 7.41 | 5.5 |  | 6.2 | 3.38 | 2.3 | 16 | 0.7 |  |  | 18 |  |  |  |  | 
13 | Cc1cccc(C)c1CNc1nc(N2CCNC2=O)cc2c(C)c(C)[nH]c12 | 6.5 |  | 1.6 | 0.158 | 8.2 | 2.54 | 0.7 | 2.7 | 22 | 1.3 | 6 | 1.6 |  |  |  |  | 
14 | Cc1cccc(C)c1CNc1ncnc2c(C)csc12 | < 4 |  |  |  |  |  |  |  |  |  |  |  |  |  |  |  | 
15 | Cc1cccc(C)c1CNc1nccc2c(C)c(C)[nH]c12 | 9.4 |  | 9 | 0.0708 | 1.8 | 2.29 | < 0.1 | 33 | 14 | 5 | 50 | 9.6 |  | 19 | 67.3 |  | 
16 | Cc1nc2c(OCc3ccccc3)cccn2c1CC#N | 7.4 | 7.28 | 9 | 0.0166 | > 100 | 4.2 | 82 |  | 2 | 8 | 8.5 | 12 |  |  |  |  | 

Row | Structure (SMILES) | pIC50 [1] | pKa ([2]; read-out: pKa) | IC50 [3] [µM] | IC50 [4] [µM] | IC50 [5] [µM] | chromatographic logD [6] | IC50 [7] [µM] | IC50 [8] [µM] | IC50 [9] [µM] | CLint scaled [10] [mL/min/kg] | CLint scaled [11] [mL/min/kg] | IC50 [12] [µM] | pIC50 [13] | CLint scaled [14] [mL/min/kg] | inhibition [15] [%] | pKa [2] | inhibition [16] [%]
17 | Cc1cccc(C)c1CNc1nc(N2CCOCC2=O)cc2c(C)c(C)[nH]c12 | 5.9 |  | 22 | 0.2 | 66 | 2.83 | 25 | 61 | 35 | 1.6 | 4.3 | 22 |  |  |  | Insoluble | 
18 | Cc1cccc(C)c1CNc1nccc2cc[nH]c12 | 6.8 | 8.63 |  |  |  |  |  |  |  |  |  |  |  |  |  |  | 
19 | CCc1cccc(C)c1CNc1cc(C(N)=O)cn2c(C)c(C)nc12 |  |  |  | 0.0234 |  |  |  |  |  | 6.5 | 14 |  |  | 3 |  |  | 
20 | Cc1cc2ncnc(NCc3c(C)cccc3C)c2s1 | < 4 |  |  |  |  |  |  |  |  |  |  |  |  |  |  |  | 
21 | Cc1cccc(C)c1CNc1nccc2c1cc(C)n2C | 6.8 | 9.14 | 3.1 |  | 6.9 | 2.04 | < 0.1 | 66 | 41 | 3.8 | 28 | 4.3 |  | 17 |  |  | 22
22 | Cc1cccc(C)c1CNc1nc(N2CCOCC2=O)cc2c(C)c(C)n(CCO)c12 | 6.6 | 5.4 | 6 | 0.0794 | > 100 | 2.93 | 36 | 13 | > 100 | 6.9 | 6.5 | 11 |  |  |  |  | 
23 | Cc1cccc(C)c1CNc1nc(-c2cccc(=O)[nH]2)cc2c(C)c(C)[nH]c12 | 5.1 |  | 1.3 | 0.316 | 62 | 4.12 | 60 | 2.3 | > 100 |  |  | 2.2 |  |  |  | Insoluble | 
24 | Cc1cccc(C)c1CNc1nc(N2CCCC2=O)cc2c(C)c(C)[nH]c12 | 7.4 | 6.32 | 1 | 0.158 | 6.4 | 3.77 | 1.9 | 1.4 | 26 |  |  | 1.8 |  |  |  |  | 
25 | Cc1cccc(C)c1CNc1nc(-n2ccccc2=O)cc2c(C)c(C)n(CCO)c12 | 6.8 | 4.5 | 5.6 | 0.251 | 40 | 3.12 | 45.5 | 11.4 | > 100 | 12.1 | 21.9 |  |  |  |  |  | 
26 | Cc1[nH]c2c(NCc3ccccc3)nccc2c1C | 8.4 | 8.79 |  |  |  |  |  |  |  |  |  |  |  |  | 98.5 |  | 
27 | C=CCn1c(C)c(C)c2cc(-n3ccccc3=O)nc(NCc3c(C)cccc3C)c21 | 7.5 | 4 | 2.4 |  | 6 | 4.06 | 26 | 0.5 | 62 | 13 | 20 |  |  |  |  |  | 
28 | Cc1cccc(C)c1CNc1ccnc2c1nc(C)n2C | 4.5 | 5.81 |  |  |  | 2.27 |  |  |  |  |  |  |  |  |  |  | 
29 | Cc1cccc(C)c1CNc1nc(-c2ccccc2)cc2c(C)c(C)[nH]c12 | 6.3 |  | 7.7 | 0.316 | 0.3 | 5.31 | 0.6 | 6.7 | 3.7 | < 0.5 | 3.9 | 6.6 |  |  |  | Insoluble | 
30 | Cc1cccc(C)c1CNc1ccnc2c1cc(C)n2C | 4.8 | 7.42 |  |  |  | 3.28 |  |  |  |  |  |  |  |  |  |  | 36
31 | Cc1cccc(C)c1CNc1ncnc2c(C)c(C)[nH]c12 | 5.9 |  | 8.8 | 0.0631 | > 10 | 2.53 | 0.3 | > 100 | > 100 | 2.8 | 9 | > 100 |  |  |  |  | 
